Results from ChEMBL document CHEMBL4806963, “Antagonistic peptides for frizzled-1 and frizzled-2” (2013).
Activity calls are given as the source filed them. The calls are words filed in the database; no cut-off is given here. Where a SMILES comes first, the peptide text is derived from it.

Tests used:
[1] = biological target: Frizzled-2 (Homo sapiens) (UniProt Q14332); assay: Antagonist activity at Wnt3a-stimulated frizzled-2 (unknown origin) expressed in human HEK293superTOP flash cells at 10 nM incubated for 24 hrs by luciferase reporter gene assay; assay type: functional, cell-based; conditions: HEK293
[2] = biological target: Frizzled-1 (Rattus norvegicus) (UniProt Q08463); assay: Antagonist activity at Wnt3a-stimulated rat frizzled-1 expressed in African green monkey COS7 cells up to 10 uM incubated for 24 hrs by luciferase reporter gene assay; assay type: cell-based; conditions: dose microM <=10, time 24.0 hrs
[3] = biological target: Frizzled-2 (Homo sapiens) (UniProt Q14332); assay: Antagonist activity at Wnt3a-stimulaed frizzled-2 (unknown origin) expressed in human HEK293superTOP flash cells at 1 nM incubated for 24 hrs by luciferase reporter gene assay (reference value: 0%); assay type: functional, cell-based
[4] = biological target: Frizzled-1 (Homo sapiens) (UniProt Q9UP38); assay: Antagonist activity at Wnt3a-stimulaed frizzled-1 (unknown origin) expressed in human HEK293superTOP flash cells at 1 nM incubated for 24 hrs by luciferase reporter gene assay (reference value: 0%); assay type: functional, cell-based
[5] = biological target: Frizzled-1 (Rattus norvegicus) (UniProt Q08463); assay: Antagonist activity at Wnt3a-stimulated rat frizzled-1 expressed in CHO cells up to 10 uM incubated for 24 hrs by luciferase reporter gene assay; assay type: cell-based; conditions: dose microM <=10, time 24.0 hrs
[6] = biological target: Frizzled-2 (Rattus norvegicus) (UniProt Q08464); assay: Antagonist activity at Wnt3a-stimulated rat frizzled-2 expressed in African green monkey COS7 cells up to 10 uM incubated for 24 hrs by luciferase reporter gene assay; assay type: cell-based; conditions: dose microM <=10, time 24.0 hrs
[7] = biological target: Frizzled-1 (Homo sapiens) (UniProt Q9UP38); assay: Antagonist activity at Wnt3a-stimulated frizzled-1 (unknown origin) expressed in human HEK293superTOP flash cells at 10 nM incubated for 24 hrs by luciferase reporter gene assay; assay type: functional, cell-based; conditions: HEK293
[8] = biological target: Frizzled-2 (Rattus norvegicus) (UniProt Q08464); assay: Antagonist activity at Wnt3a-stimulated rat frizzled-2 expressed in […] cells up to 10 uM incubated for 24 hrs by luciferase reporter gene assay; assay type: cell-based; conditions: dose microM <=10, time 24.0 hrs

Frizzled-1 (Homo sapiens), sequence (Q9UP38 70-647 limits assumed): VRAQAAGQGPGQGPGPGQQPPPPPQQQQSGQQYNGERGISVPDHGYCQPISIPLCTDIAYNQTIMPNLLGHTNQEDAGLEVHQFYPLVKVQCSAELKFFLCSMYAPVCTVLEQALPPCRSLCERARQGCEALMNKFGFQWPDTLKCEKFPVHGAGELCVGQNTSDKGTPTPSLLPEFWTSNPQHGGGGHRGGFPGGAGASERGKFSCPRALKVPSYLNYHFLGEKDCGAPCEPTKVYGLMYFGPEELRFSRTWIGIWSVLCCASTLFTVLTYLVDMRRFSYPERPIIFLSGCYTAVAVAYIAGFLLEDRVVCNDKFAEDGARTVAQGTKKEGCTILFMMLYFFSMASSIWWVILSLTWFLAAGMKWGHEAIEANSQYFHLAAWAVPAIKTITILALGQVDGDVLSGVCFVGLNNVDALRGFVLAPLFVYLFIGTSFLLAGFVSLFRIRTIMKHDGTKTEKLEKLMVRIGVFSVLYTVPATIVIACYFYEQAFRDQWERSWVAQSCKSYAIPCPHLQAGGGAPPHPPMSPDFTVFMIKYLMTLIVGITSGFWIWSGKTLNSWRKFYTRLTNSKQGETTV
Frizzled-1 (Rattus norvegicus), sequence (Q08463 whole entry): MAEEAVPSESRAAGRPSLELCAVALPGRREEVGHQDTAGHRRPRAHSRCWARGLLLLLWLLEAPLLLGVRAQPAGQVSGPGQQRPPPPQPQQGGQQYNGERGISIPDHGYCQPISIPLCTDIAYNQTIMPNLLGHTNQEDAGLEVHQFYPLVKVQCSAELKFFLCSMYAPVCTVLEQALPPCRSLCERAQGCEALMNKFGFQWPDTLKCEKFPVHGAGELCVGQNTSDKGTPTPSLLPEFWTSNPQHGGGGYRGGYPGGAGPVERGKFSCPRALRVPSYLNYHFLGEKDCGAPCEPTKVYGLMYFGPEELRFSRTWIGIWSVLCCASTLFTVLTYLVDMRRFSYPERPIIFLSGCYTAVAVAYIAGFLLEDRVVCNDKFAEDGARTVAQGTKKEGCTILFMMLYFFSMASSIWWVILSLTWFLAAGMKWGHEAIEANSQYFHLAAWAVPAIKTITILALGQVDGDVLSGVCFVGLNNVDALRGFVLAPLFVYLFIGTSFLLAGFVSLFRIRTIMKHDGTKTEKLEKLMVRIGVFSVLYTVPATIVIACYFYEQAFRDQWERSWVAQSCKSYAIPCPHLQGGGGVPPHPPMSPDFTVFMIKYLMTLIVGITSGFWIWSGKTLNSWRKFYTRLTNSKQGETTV
Frizzled-2 (Rattus norvegicus), sequence (Q08464 29-570 limits assumed): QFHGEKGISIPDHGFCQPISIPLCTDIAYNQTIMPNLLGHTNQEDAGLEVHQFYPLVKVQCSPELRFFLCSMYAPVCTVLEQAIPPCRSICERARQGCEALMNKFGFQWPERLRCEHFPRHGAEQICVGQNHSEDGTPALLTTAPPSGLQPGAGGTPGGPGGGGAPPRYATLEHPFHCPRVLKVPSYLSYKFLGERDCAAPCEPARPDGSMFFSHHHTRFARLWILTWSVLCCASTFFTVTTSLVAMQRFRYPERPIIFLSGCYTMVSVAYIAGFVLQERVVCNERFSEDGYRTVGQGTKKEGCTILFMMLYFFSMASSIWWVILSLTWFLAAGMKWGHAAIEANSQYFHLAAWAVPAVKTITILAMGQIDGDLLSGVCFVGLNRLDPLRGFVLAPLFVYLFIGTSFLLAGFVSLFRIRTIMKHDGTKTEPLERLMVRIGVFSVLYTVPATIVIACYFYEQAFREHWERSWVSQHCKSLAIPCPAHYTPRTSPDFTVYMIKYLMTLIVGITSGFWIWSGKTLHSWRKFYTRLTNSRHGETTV
Frizzled-2 (Homo sapiens), sequence (Q14332 24-565 limits assumed): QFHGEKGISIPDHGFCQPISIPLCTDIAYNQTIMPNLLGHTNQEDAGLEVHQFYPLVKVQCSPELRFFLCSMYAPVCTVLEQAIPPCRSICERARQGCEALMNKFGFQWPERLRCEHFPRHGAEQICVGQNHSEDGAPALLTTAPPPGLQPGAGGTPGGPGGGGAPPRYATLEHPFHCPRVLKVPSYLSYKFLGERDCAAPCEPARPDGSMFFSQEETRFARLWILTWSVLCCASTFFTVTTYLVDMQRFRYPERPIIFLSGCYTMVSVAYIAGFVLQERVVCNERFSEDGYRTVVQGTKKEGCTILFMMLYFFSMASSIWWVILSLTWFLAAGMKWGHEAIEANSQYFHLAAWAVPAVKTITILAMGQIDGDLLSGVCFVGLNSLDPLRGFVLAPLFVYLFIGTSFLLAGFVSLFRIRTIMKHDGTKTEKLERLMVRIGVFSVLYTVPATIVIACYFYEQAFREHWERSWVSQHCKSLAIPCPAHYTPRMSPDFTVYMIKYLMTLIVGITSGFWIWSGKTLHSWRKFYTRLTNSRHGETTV

## CSCC[C@H](NC(=O)CNC(=O)[C@H](CCC(=O)O)NC(=O)[C@H](CO)NC(=O)[C@@H](NC(=O)[C@H](CCCCN)NC(=O)[C@H](C)NC(=O)[C@H](CS)NC(C)=O)[C@@H](C)O)C(=O)N[C@@H](CC(=O)O)C(=O)NCC(=O)N[C@@H](CS)C(=O)N[C@@H](CCC(=O)O)C(=O)N[C@@H](CC(C)C)C(N)=O (Ac-CAKTSEGMDGCEL-NH2)
[1]
  inhibition: inactive
[2]
  inhibition: inactive
[3]; HEK293, filed as antagonist
  inhibition: 79.5%
[4]; HEK293, filed as antagonist
  inhibition: 68%
[5]
  inhibition: inactive
[6]
  inhibition: inactive
[7]
  inhibition: inactive
[8]
  inhibition: inactive

## CSCC[C@H](NC(=O)CNC(=O)[C@H](CCC(=O)O)NC(=O)[C@H](CO)NC(=O)[C@@H](NC(=O)[C@H](C)NC(=O)[C@H](CC(N)=O)NC(=O)[C@H](CS)NC(C)=O)[C@@H](C)O)C(=O)N[C@@H](CC(=O)O)C(=O)NCC(=O)N[C@@H](CS)C(=O)N[C@@H](CCC(=O)O)C(=O)N[C@@H](CC(C)C)C(N)=O (Ac-CNATSEGMDGCEL-NH2)
[1]
  inhibition: inactive
[2]
  inhibition: inactive
[3]; HEK293, filed as antagonist
  inhibition: 84.9%
[4]; HEK293, filed as antagonist
  inhibition: 70.8%
[5]
  inhibition: inactive
[6]
  inhibition: inactive
[7]
  inhibition: inactive
[8]
  inhibition: inactive

## CSCC[C@H](NC(=O)[C@H](C)NC(=O)[C@H](CCC(=O)O)NC(=O)[C@H](CO)NC(=O)[C@H](C)NC(=O)[C@H](CCCCN)NC(=O)[C@H](CC(N)=O)NC(=O)[C@H](CS)NC(C)=O)C(=O)N[C@@H](C)C(=O)NCC(=O)N[C@@H](CS)C(=O)N[C@@H](CCC(=O)O)C(=O)N[C@@H](CC(C)C)C(N)=O (Ac-CNKASEAMAGCEL-NH2)
[1]
  inhibition: inactive
[2]
  inhibition: inactive
[3]; HEK293
  inhibition: 17.5%
[4]; HEK293
  inhibition: 11.2%
[5]
  inhibition: inactive
[6]
  inhibition: inactive
[7]
  inhibition: inactive
[8]
  inhibition: inactive

## CSCC[C@H](NC(=O)CNC(=O)[C@H](CCC(=O)O)NC(=O)[C@H](CO)NC(=O)[C@H](C)NC(=O)[C@H](CCCCN)NC(=O)[C@H](CC(N)=O)NC(=O)[C@H](CS)NC(C)=O)C(=O)N[C@@H](CC(=O)O)C(=O)NCC(=O)N[C@@H](CS)C(=O)N[C@@H](CCC(=O)O)C(=O)N[C@@H](CC(C)C)C(N)=O (Ac-CNKASEGMDGCEL-NH2)
[1]
  inhibition: inactive
[2]
  inhibition: inactive
[3]; HEK293, filed as antagonist
  inhibition: 59.4%
[4]; HEK293
  inhibition: 28.1%
[5]
  inhibition: inactive
[6]
  inhibition: inactive
[7]
  inhibition: inactive
[8]
  inhibition: inactive

## CSCC[C@H](NC(=O)CNC(=O)[C@H](CCC(=O)O)NC(=O)[C@H](C)NC(=O)[C@@H](NC(=O)[C@H](CCCCN)NC(=O)[C@H](CC(N)=O)NC(=O)[C@H](CS)NC(C)=O)[C@@H](C)O)C(=O)N[C@@H](CC(=O)O)C(=O)NCC(=O)N[C@@H](CS)C(=O)N[C@@H](CCC(=O)O)C(=O)N[C@@H](CC(C)C)C(N)=O (Ac-CNKTAEGMDGCEL-NH2)
[1]
  inhibition: inactive
[2]
  inhibition: inactive
[3]; HEK293, filed as antagonist
  inhibition: 87.3%
[4]; HEK293, filed as antagonist
  inhibition: 74.3%
[5]
  inhibition: inactive
[6]
  inhibition: inactive
[7]
  inhibition: inactive
[8]
  inhibition: inactive

## CSCC[C@H](NC(=O)CNC(=O)[C@H](C)NC(=O)[C@H](CO)NC(=O)[C@@H](NC(=O)[C@H](CCCCN)NC(=O)[C@H](CC(N)=O)NC(=O)[C@H](CS)NC(C)=O)[C@@H](C)O)C(=O)N[C@@H](CC(=O)O)C(=O)NCC(=O)N[C@@H](CS)C(=O)N[C@@H](CCC(=O)O)C(=O)N[C@@H](CC(C)C)C(N)=O (Ac-CNKTSAGMDGCEL-NH2)
[1]
  inhibition: inactive
[2]
  inhibition: inactive
[3]; HEK293, filed as antagonist
  inhibition: 84.7%
[4]; HEK293, filed as antagonist
  inhibition: 70.8%
[5]
  inhibition: inactive
[6]
  inhibition: inactive
[7]
  inhibition: inactive
[8]
  inhibition: inactive
